According to PubChem BioAssay (NCI):
“And” between values parts separate entries of the source, which are not always exact repeats. Identical values can stand only once.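 Cultured in 96-well plates, cells were exposed to test compound for 48 hours across five concentrations. GI50 = concentration required for 50% inhibition of growth. TGI is the concentration that stops growth completely.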

Assays:
Assay in all cases: NCI-60 cell line screen, 48 h
NCI-H226 lung = test system: NCI-H226 lung
SR leukemia = test system: SR leukemia
SNB-19 CNS = test system: SNB-19 CNS
U251 CNS = test system: U251 CNS
786-0 renal = test system: 786-0 renal
CAKI-1 renal = test system: CAKI-1 renal
HCT-116 colon = test system: HCT-116 colon
A549 NSCLC = test system: A549 NSCLC
SK-MEL-5 melanoma = test system: SK-MEL-5 melanoma
A498 renal = test system: A498 renal

CSCCOC(=O)C(=[N+]=[N-])c1ccc([N+](=O)[O-])cc1
TGI (NCI-H226 lung): > 100 µM
TGI (SR leukemia): > 100 µM
TGI (SNB-19 CNS): > 100 µM
TGI (U251 CNS): > 100 µM
TGI (786-0 renal): > 100 µM
TGI (CAKI-1 renal): > 100 µM
TGI (HCT-116 colon): > 100 µM
TGI (A549 NSCLC): > 100 µM

CC(=O)Oc1cc2c(OC(C)=O)c(-c3c(C)cc4c(C(C)C)c(OC(C)=O)c(OC(C)=O)cc4c3OC(C)=O)c(C)cc2c(C(C)C)c1OC(C)=O
GI50 (NCI-H226 lung): 1.14 µM and 4.72 µM and 8.69 µM
TGI (NCI-H226 lung): 2.58 µM and 11.1 µM and 20.9 µM
GI50 (SR leukemia): 28300 nM and 6930 nM
TGI (SR leukemia): > 100 µM and 21.4 µM
GI50 (SK-MEL-5 melanoma): 17.4 µM and 4.66 µM and 7.79 µM
TGI (SK-MEL-5 melanoma): 33.2 µM and 9 µM and 17 µM
GI50 (SNB-19 CNS): 15300 nM and 8770 nM and 19600 nM
TGI (SNB-19 CNS): > 31.7 µM and 25.2 µM and 47.5 µM
GI50 (U251 CNS): 4840 nM and 4850 nM and 9430 nM
TGI (U251 CNS): 9.38 µM and 24.7 µM and 35.7 µM
GI50 (786-0 renal): 7260 nM and 6910 nM and 11400 nM
TGI (786-0 renal): 20.8 µM and 16.5 µM and 35.4 µM
GI50 (CAKI-1 renal): 7.61 µM and 6.16 µM and 11.5 µM
TGI (CAKI-1 renal): 21.9 µM and 13.1 µM and 30.9 µM
GI50 (HCT-116 colon): 6.22 µM and 6.63 µM and 7.46 µM
TGI (HCT-116 colon): 14.3 µM and 15.9 µM and 14.4 µM
GI50 (A498 renal): 4.91 µM and 4.51 µM and 11.5 µM
TGI (A498 renal): 10 µM and 11.7 µM and 37.3 µM
GI50 (A549 NSCLC): 14.7 µM and 5.12 µM and 9.61 µM
TGI (A549 NSCLC): 30.7 µM and 9.92 µM and 22.2 µM

OC1C2CCC1C1C3C=CC(C3)C21 (stereo not drawn)
TGI (NCI-H226 lung): > 100 µM
TGI (SR leukemia): > 100 µM
TGI (SK-MEL-5 melanoma): > 100 µM
TGI (SNB-19 CNS): > 100 µM
TGI (U251 CNS): > 100 µM
TGI (786-0 renal): > 100 µM
TGI (CAKI-1 renal): > 100 µM
TGI (HCT-116 colon): > 100 µM
TGI (A549 NSCLC): > 100 µM

CC(=O)C1(N=Nc2ccc(S(N)(=O)=O)cc2)CCOC1=O (stereo not drawn)
TGI (NCI-H226 lung): > 100 µM
TGI (SK-MEL-5 melanoma): > 100 µM
TGI (SNB-19 CNS): > 100 µM
TGI (U251 CNS): > 100 µM
TGI (786-0 renal): > 100 µM
TGI (CAKI-1 renal): > 100 µM
TGI (HCT-116 colon): > 100 µM
TGI (A498 renal): > 100 µM
TGI (A549 NSCLC): > 100 µM

CN(C)CCCNC(=O)c1cncnc1Nc1ccc(OCc2cccc(F)c2)c(Cl)c1
GI50 (NCI-H226 lung): 4.27 µM
TGI (NCI-H226 lung): 19.6 µM
GI50 (SK-MEL-5 melanoma): 1.71 µM
TGI (SK-MEL-5 melanoma): 3.08 µM
GI50 (SNB-19 CNS): 1720 nM
TGI (SNB-19 CNS): 3.11 µM
GI50 (U251 CNS): 1660 nM
TGI (U251 CNS): 3.26 µM
GI50 (786-0 renal): 1660 nM
TGI (786-0 renal): 3.1 µM
GI50 (CAKI-1 renal): 1.66 µM
TGI (CAKI-1 renal): 3.05 µM
GI50 (HCT-116 colon): 1.47 µM
TGI (HCT-116 colon): 2.79 µM
GI50 (A498 renal): 1.56 µM
TGI (A498 renal): 2.93 µM
GI50 (A549 NSCLC): 1.71 µM
TGI (A549 NSCLC): 3.37 µM

COc1cnc2c(c1)C(=O)c1c-2n(CCCNC(C)C)c(=O)c2cc(F)ccc12
GI50 (NCI-H226 lung): 0.146 µM
TGI (NCI-H226 lung): 0.325 µM
GI50 (SR leukemia): 75.8 nM
TGI (SR leukemia): 0.839 µM
GI50 (SK-MEL-5 melanoma): 0.156 µM
TGI (SK-MEL-5 melanoma): 0.496 µM
GI50 (SNB-19 CNS): 179 nM
TGI (SNB-19 CNS): 1.32 µM
GI50 (U251 CNS): 78.8 nM
TGI (U251 CNS): 0.397 µM
GI50 (786-0 renal): 116 nM
TGI (786-0 renal): 0.482 µM
GI50 (HCT-116 colon): 0.093 µM
TGI (HCT-116 colon): 0.328 µM
GI50 (A498 renal): 0.199 µM
TGI (A498 renal): 0.811 µM
GI50 (A549 NSCLC): 0.0718 µM
TGI (A549 NSCLC): 0.239 µM

CC1OC(OC2C(CO)OC(O[C@H]3CC[C@@]4(C)C(=CC[C@H]5[C@@H]6C[C@@H]7O[C@]8(CC[C@@H](C)CN8)[C@@H](C)[C@@H]7[C@@]6(C)CC[C@@H]54)C3)C(O)C2O)C(O)C(O)C1O (stereo partly drawn)
TGI (SK-MEL-5 melanoma): > 100 µM
TGI (SNB-19 CNS): > 100 µM
TGI (U251 CNS): > 100 µM
TGI (786-0 renal): > 100 µM
TGI (CAKI-1 renal): > 100 µM
TGI (HCT-116 colon): > 100 µM
TGI (A498 renal): > 100 µM
TGI (A549 NSCLC): > 100 µM

CC[C@@H]1C[C@H]2CC3c4[nH]c5ccc(O)cc5c4CCN(C2)C31
TGI (NCI-H226 lung): > 100 µM
TGI (SR leukemia): > 100 µM
TGI (SNB-19 CNS): > 100 µM
TGI (U251 CNS): > 100 µM
TGI (786-0 renal): > 100 µM
TGI (CAKI-1 renal): > 100 µM
TGI (HCT-116 colon): > 100 µM
TGI (A549 NSCLC): > 100 µM

O=c1oc(=O)c2oc3ccccc3oc1=2
TGI (NCI-H226 lung): > 100 µM
TGI (SR leukemia): > 100 µM
TGI (SNB-19 CNS): > 100 µM
TGI (U251 CNS): > 100 µM
TGI (786-0 renal): > 100 µM
TGI (CAKI-1 renal): > 100 µM
TGI (HCT-116 colon): > 100 µM
TGI (A498 renal): > 100 µM
TGI (A549 NSCLC): > 100 µM

CC/C(=C(/c1ccc(O)cc1)c1ccc(OCCN2CCCCC2)cc1)c1ccc(OC)cc1
GI50 (NCI-H226 lung): 16.8 µM
TGI (NCI-H226 lung): 37.9 µM
GI50 (SR leukemia): 215 nM
TGI (SR leukemia): 0.649 µM
GI50 (SK-MEL-5 melanoma): 1.79 µM
TGI (SK-MEL-5 melanoma): 3.21 µM
GI50 (SNB-19 CNS): 1970 nM
TGI (SNB-19 CNS): 4.62 µM
GI50 (U251 CNS): 1850 nM
TGI (U251 CNS): 4.22 µM
GI50 (786-0 renal): 1280 nM
TGI (786-0 renal): 2.74 µM
GI50 (HCT-116 colon): 1.15 µM
TGI (HCT-116 colon): 2.51 µM
GI50 (A498 renal): 4.29 µM
TGI (A498 renal): 17.6 µM
GI50 (A549 NSCLC): 4.11 µM
TGI (A549 NSCLC): 15.4 µM

O=C1CC(O)(c2ccccc2)C(c2ccccc2)=C1c1ccccc1 (stereo not drawn)
TGI (SK-MEL-5 melanoma): 86.7 µM
TGI (786-0 renal): > 100 µM
TGI (CAKI-1 renal): > 100 µM
TGI (A549 NSCLC): > 100 µM

CN(C)CCOC(c1ccccc1)c1ccccc1
GI50 (NCI-H226 lung): 39.7 µM
TGI (NCI-H226 lung): 56.4 µM and > 100 µM
TGI (SR leukemia): > 100 µM
GI50 (SK-MEL-5 melanoma): 15.7 µM
TGI (SK-MEL-5 melanoma): 28.2 µM and > 100 µM
GI50 (786-0 renal): 35100 nM
TGI (786-0 renal): 49.8 µM and > 100 µM
GI50 (CAKI-1 renal): 38.2 µM
TGI (CAKI-1 renal): 52.6 µM and > 100 µM
GI50 (HCT-116 colon): 32.1 µM
TGI (HCT-116 colon): 48.7 µM and > 100 µM
GI50 (A498 renal): 40.9 µM
TGI (A498 renal): 58.4 µM
GI50 (A549 NSCLC): 35.9 µM
TGI (A549 NSCLC): 51.7 µM and > 100 µM

COC(=O)c1ccc(Cl)cc1NC(=O)C1CCCCC1
TGI (NCI-H226 lung): > 100 µM
TGI (SR leukemia): > 100 µM
TGI (SNB-19 CNS): > 100 µM
TGI (U251 CNS): > 100 µM
TGI (786-0 renal): > 100 µM
TGI (CAKI-1 renal): > 100 µM
TGI (HCT-116 colon): > 100 µM
TGI (A549 NSCLC): > 100 µM

Cc1ccc(-c2nc(N3CCCNCC3)c3oc(-c4ccccc4)nc3n2)cc1
GI50 (NCI-H226 lung): 1.82 µM
TGI (NCI-H226 lung): 3.97 µM
GI50 (SR leukemia): 239 nM
TGI (SR leukemia): 0.624 µM
GI50 (SK-MEL-5 melanoma): 1.6 µM
TGI (SK-MEL-5 melanoma): 3.03 µM
GI50 (SNB-19 CNS): 1820 nM
TGI (SNB-19 CNS): 3.45 µM
GI50 (U251 CNS): 1780 nM
TGI (U251 CNS): 3.17 µM
GI50 (786-0 renal): 1430 nM
TGI (786-0 renal): 2.81 µM
GI50 (CAKI-1 renal): 1.65 µM
TGI (CAKI-1 renal): 3.03 µM
GI50 (A498 renal): 1.66 µM
TGI (A498 renal): 3.16 µM
GI50 (A549 NSCLC): 1.71 µM
TGI (A549 NSCLC): 3.12 µM

O=S(=O)(Nc1cc(Cl)ccc1Cl)c1ccc(-c2cnc(C3CC3)o2)cc1
GI50 (NCI-H226 lung): 4.55 µM
TGI (NCI-H226 lung): 38.6 µM
GI50 (SR leukemia): 551 nM
TGI (SR leukemia): > 100 µM
GI50 (SK-MEL-5 melanoma): 3.36 µM
TGI (SK-MEL-5 melanoma): 21.8 µM
GI50 (SNB-19 CNS): 1510 nM
TGI (SNB-19 CNS): > 100 µM
GI50 (U251 CNS): 2000 nM
TGI (U251 CNS): 68.2 µM
GI50 (786-0 renal): 539 nM
TGI (786-0 renal): 20.9 µM
GI50 (CAKI-1 renal): 0.647 µM
TGI (CAKI-1 renal): 52.1 µM
GI50 (HCT-116 colon): 0.453 µM
TGI (HCT-116 colon): 15 µM
GI50 (A549 NSCLC): 1.66 µM
TGI (A549 NSCLC): > 100 µM

O=c1oc2ccc(-n3c(=O)c4ccccc4c4ccccc4c3=O)cc2c2ccccc12
TGI (NCI-H226 lung): > 100 µM
TGI (SK-MEL-5 melanoma): > 100 µM
TGI (SNB-19 CNS): > 100 µM
TGI (U251 CNS): 63.6 µM
TGI (786-0 renal): > 100 µM
TGI (CAKI-1 renal): > 100 µM
TGI (HCT-116 colon): > 100 µM
TGI (A498 renal): > 100 µM
TGI (A549 NSCLC): > 100 µM

COc1ccc2oc(C(=O)O)c3c2c1CCC3
TGI (SK-MEL-5 melanoma): > 100 µM
TGI (SNB-19 CNS): > 100 µM
TGI (U251 CNS): > 100 µM
TGI (786-0 renal): > 100 µM
TGI (CAKI-1 renal): > 100 µM
TGI (HCT-116 colon): > 100 µM
TGI (A498 renal): > 100 µM
TGI (A549 NSCLC): > 100 µM

COc1ccc(OC(C(=O)O)c2ccccc2)c2c1CCCC2=O (stereo not drawn)
TGI (SK-MEL-5 melanoma): > 100 µM
TGI (SNB-19 CNS): > 100 µM
TGI (U251 CNS): > 100 µM
TGI (786-0 renal): > 100 µM
TGI (CAKI-1 renal): > 100 µM
TGI (HCT-116 colon): > 100 µM
TGI (A498 renal): > 100 µM
TGI (A549 NSCLC): > 100 µM
